Measurements reported in patent US20240299378A1, “EMULSION FOR USE IN THE TREATMENT OF ROSACEA” (EXINOV, priority 2021, published 2024).

Test system: cell proliferation in the local lymph nodes
Test: mouse Local Lymph Node Assay (LLNA), 3HTdR incorporation
Conditions: topical on ears days 1-3; Em-A 100% (w/v) in AOO; HCA 25% (w/v) in AOO
Source text: Preliminary tests: Based on the results of the Preliminary Compatibility Test, the tested emulsions characteristics (e.g., when the emulsion is a dense cream), its use and following the Organisation for Economic Co-operation and Development (OECD) Guidelines, the best vehicle for the tested emulsions was considered as AOO (acetone:olive oil 4:1 (v/v) mixture). The tested emulsions at 100% (w/v) were suitable for the test using AOO as vehicle. […] Based on the observations recorded in this test, the 100% (w/v) in AOO dose was selected as top dose for the main test. […] Tested emulsions were applied on the dorsal surface of ears of experimental animals (25 μL/ear using positive displacement pipette) for three consecutive days (days 1, 2 and 3). There was no treatment on days 4, 5 and 6. The cell proliferation in the local lymph nodes was assessed by measuring the incorporation of tritiated methyl thymidine (3HTdR) and the values obtained were used to calculate stimulation indices (SI) in comparison with the control group.

SMILES: CCCCCCC(C=O)=Cc1ccccc1 [HCA, α-hexylcinnamaldehyde]
- stimulation index (SI): 12.7
